Laboratory results: patent US20160223547A1, “MARKER FOR PREDICTING METASTASIS OF BREAST CANCER” (priority 2013, published 2016)

Columns and labels:
[1] = tested on: BRV5CA1 cells (clones 424-2 and 424-8, silenced GRP94; Pool, non-silenced GRP94); assay: MTT cytotoxicity assay of taxotere on brain metastatic breast cancer cells with silenced or non-silenced GRP94; type: cell-based; conditions: clones 424-2 and 424-8 (silenced GRP94) vs pool, 1-10 ng/ml, 72 h
Procedure: To […], three sublines were used: Clones: 424-2 and 424-8 (silenced GRP94 [shGRP94]) and a Pool (non-silenced GRP94), from the metastatic variant BRV5Ca1.
For the cytotoxicity assay, each cell type was seeded in triplicate in a 96-well plate (Costar® 3596; Corning Incorporated) at a density of 6000 cells/well in 50 μL of complete medium (DMEM/F12 GIBCO® with serum). Twenty-four hours after seeding the cells, they were treated with taxotere (docetaxel >99%; LC Laboratories (www.LCLabs.com); Stock 200 mg/ml), at different concentrations in triplicate: 10-5-2.5-1 and 0 ng/ml, in a volume of 50 μL/well. Seventy-two hours after the start of the treatment, a cell viability assay MTT was carried out in which survival expressed as a percentage (%) was analyzed (FIG. 2). […]
After this time, the medium was removed from the wells and 50 μL of MTT [3-(4,5-dimethylthiazol-2-yl)-2,5-diphenyltetrazolium bromide; Sigma-Aldrich) were added per well, at a concentration of 5 mg MTT/ml of medium without serum. […] It was left to stir for 10-15 minutes (in the dark) and was then analyzed in the microplate spectrophotometer (PowerWave™ XS; BioTek) at a wavelength of 540 nm.
Absorbance values (OD) were obtained in triplicate for each of the treatment concentrations established. The calculated mean was expressed in reference to the control thereof (0 ng/ml), considered as the maximum survival value (100%).

[2] = tested on: xenotransplant of breast cancer metastasizing to the brain; assay: Effect of taxotere on growth of intramammary xenografts; type: in vivo; conditions: Athymic Nude-Foxn1nu mice, 15 mg/kg/day every 4 days for two weeks, vs carrier control, p=0.003
Procedure: A xenotransplant of breast cancer metastasizing to the brain provided by Dr. Eva Gonzalez was used to induce breast tumors in immunosuppressed Athymic Nude-Foxnlnu mice weighing 22-28 grams acquired from Charles-River Laboratories (Wilmington, Mass.) and to establish groups that are treated or not treated with taxotere following a previously established standard protocol of 15 mg/kg/day every 4 days for two weeks (Bin Gu et al., Carcinogenesis, 2004). The 2 mm^3 tumor fragment was implanted in the inguinal breast of female mice and 10 days were waited out for the graft to progress. After evaluating the volume of the tumor, treatment with taxotere was started, considering in each case a control group which was treated with the drug carrier.

[3] = tested on: brain metastases of breast cancer induced by BRV5CA1 cells; assay: Therapeutic effect on brain metastases induced by BRV5CA1 cells, luciferase emission monitored in vivo; conditions: female Athymic Nude-Foxn1nu mice, 50 mg/kg/d on consecutive days, after a week of treatment
Procedure: The therapeutic effect of lenalidomide was analyzed by treating the brain metastases of breast cancer induced by injecting BRV5CA1 cells labeled with the luciferase gene into female Athymic Nude-Foxnlnu mice (Martinez-Aranda A., Int. J. Mol. Sci. 2013, 14(4), 8306-8327). The treatment groups N=8 (lenalidomide 50 mg/kg/d on consecutive days) and the control group, in which carrier was injected, were established. The start of the treatment was established on day 14 after the graft and treatment was maintained for 15 days until the end of the experiment. The treatment was started on day 13 after induction and progression of the growth of metastasis was monitored in vivo by quantifying luciferase emission (photons per second) (FIG. 7). After a week of treatment, the difference in growth of the metastasis between the control group and the treated group was significant.

[4] = tested on: FN14; assay: Immunohistochemistry of FN14 expression in triple-negative breast carcinoma grafts treated with lenalidomide; type: in vivo; conditions: triple-negative breast carcinoma graft in immunosuppressed mice, vs carrier control, anti-FN14 immunohistochemistry
From the text: Experimental tumors induced in the breast of immunosuppressed mice by implanting small biopsy fragments (2×2 mm) from patients with triple-negative breast carcinoma. An example of one of these grafts treated with lenalidomide (LND) with respect to the same graft treated with the carrier (control) is shown.
For expression studies, the immunohistochemistry technique with specific anti-FN14 antibodies (sc-27143, C-13, Santa Cruz Biotechnology) at a concentration of 1/3000 was used. Kidney and heart tissues were used as control tissues to view the expression in the cell membrane. The antigens were exposed by heating the preparations in a pressure cooker for 7 minutes in the suitable citrate buffer (Sanz et al., Am J Pathol, 179(2):564-579, 2011).
The primary antibody was diluted in the Dako diluent buffer (Dako, Glostrup, Denmark; Carpinteria, Calif.): Tris buffer, pH 7.2, 15 mmol/1 of NaN3. The LSAB peroxidase system (Dako), including biotinylated secondary antibody, followed by conjugated streptavidin, was used along with the ultraView detection kit (Ventana Benchmark XT, Roche, Tucson, Ariz.). The tumors were classified in three categories considering staining intensity: negative, weakly positive and strongly positive. Only those which are strongly positive in more than 30% of the tumor cells were considered with the overexpressed protein.

| Structure (SMILES) | survival of cells after treatment (percentage of survival with respect to the control) [1] | tumor growth (normalized volume divided by the initial volume) [2] | difference in growth of the metastasis between control group and treated group (luciferase emission, photons per second) [3] | expression of FN14 in tumor graft [4] |
| --- | --- | --- | --- | --- |
| CC(=O)O[C@H]1C(=O)[C@@]2(C)[C@H]([C@H](OC(=O)c3ccccc3)[C@]3(O)C[C@H](OC(=O)[C@H](O)[C@@H](NC(=O)c4ccccc4)c4ccccc4)C(C)=C1C3(C)C)[C@]1(OC(C)=O)CO[C@@H]1C[C@@H]2O [taxol, 11-methano-5H-cyclodeca[3,4]benz[1,2-b]oxete benzenepropanoic acid deriv.] | lower survival | – | – | – |
| CC(=O)O[C@@]12CO[C@@H]1C[C@H](O)[C@@]1(C)C(=O)[C@H](O)C3=C(C)[C@@H](OC(=O)[C@H](O)[C@@H](NC(=O)OC(C)(C)C)c4ccccc4)C[C@@](O)([C@@H](OC(=O)c4ccccc4)[C@H]21)C3(C)C [taxotere, N-debenzoyl-N-tert-butoxycarbonyl-10-deacetyl taxol] | significantly reduces the survival | tendency to grow less than that of the control | – | – |
| Nc1cccc2c1CN(C1CCC(=O)NC1=O)C2=O (centres unmarked) [lenalidomide] | – | – | significant | inhibition of the expression of FN14 |
